logP data for 70 compounds are collected here from the SangsterLogP compilation.

The nature of series [1]: method code SF-C, from DOI: 10.1021/ja01077a028.

With `O=C(O)c1cccc(C(=O)O)c1`, the logP – broadly, the decadic logarithm of the partition coefficient of the neutral form, usually between octanol and water – is 1.66. On the same count and under the same terms, in the case of `CN(C)c1cccc(O)c1` it was 1.56.

As for `O=C(O)COc1ccc(O)cc1`, the logP is 0.65. Same read-out and setting: to `OCc1cccc(Cl)c1` belongs 1.94; to `CC(=O)c1cccc(O)c1`, 1.39. Same read-out and setting: to `O=C(O)COc1ccc(C2CCCC2)cc1` belongs 3.41.

`CC(=O)Oc1ccccc1` came in with a logP of 1.49. Same read-out and setting: in the case of `CC(=O)c1ccccc1OCC(=O)O` it was 1.25; in that of `O=C(O)COc1ccc2c(c1)CCC2`, 2.33.

On to `Oc1cccc(I)c1`, for which the logP came out at 2.93. Consider `CC(C)(C)c1cccc(OCC(=O)O)c1`, for which the logP came out at 2.96.

On to `Cc1cccc(CO)c1`, for which the lipophilicity (logP) came out at 1.6. `CCCCc1cccc(OCC(=O)O)c1` gave a logP of 3.18. Consider `O=C(O)COc1ccc2c(c1)CCCC2`, for which the log partition coefficient (logP) was 2.67. As for `O=C(O)Cc1ccccc1F`, the log partition coefficient (logP) in series [1] amounted to 1.5. In the case of `COC(=O)c1cccc(C(=O)O)c1`, the logP stood at 1.83. As to `O=C(O)Cc1cccc(Cl)c1`, the logP was determined as 2.09. In turn, `CC(C)c1cccc(OCC(=O)O)c1` had a log partition coefficient (logP) of 2.59.

`Oc1ccccc1F` displayed a logP of 1.71. In turn, `COc1cccc(OCC(=O)O)c1` showed a logP of 1.38.

As to `O=C(O)COc1ccccc1[N+](=O)[O-]`, the logP in series [1] is 1.22. Turning to `O=C(O)COc1cccc(Cl)c1`, the logP was 2.03. On the same count and under the same terms, to `CCc1cccc(O)c1` belongs 2.4. Regarding `Nc1cccc(CO)c1`, the logP is -0.05. In turn, `O=C(O)Cc1cccc(F)c1` yielded a lipophilicity (logP) in series [1] of 1.65. As for `O=C(O)COc1ccccc1I`, the logP is 2.19. With `O=C(O)Cc1cccc([N+](=O)[O-])c1`, the logP was found to be 1.45.

`O=C(O)COc1cccc(S(F)(F)(F)(F)F)c1` had a logP of 2.78.

`O=C(O)COc1ccc(C2CCCCC2)cc1`: the logP amounted to 3.79. Regarding `O=C(O)COc1cccc(-c2ccccc2)c1`, the logP came to 3.18. The same measure, in the same setting: in the case of `CC(=O)c1cccc([N+](=O)[O-])c1` it was 1.42; in that of `O=C(O)COc1ccc([N+](=O)[O-])cc1`, 1.48. Compound `Cc1cccc(CC(=O)O)c1` registered a lipophilicity (logP) in series [1] of 1.95.

In the case of `Nc1cccc(F)c1`, the logP turned out to be 1.3.

`O=C(O)c1cccc(C(F)(F)F)c1`: the logP came to 2.95. Compound `COc1cccc(CC(=O)O)c1` came in with a log partition coefficient (logP) in series [1] of 1.5. `COc1ccc(CO)cc1` gave a log partition coefficient (logP) of 1.1. Still for that read-out and setting: in the case of `Oc1ccccc1Br` it was 2.35. `CS(=O)(=O)c1cccc(CC(=O)O)c1` returned a logP of 0.06. The same measure, in the same setting: in the case of `CCC(C)c1ccc(OCC(=O)O)cc1` (stereo not given) it was 3.12. `NC(=O)Nc1cccc(OCC(=O)O)c1` yielded a logP of 0.26. Same read-out and setting: to `O=C(O)COc1cccc(O)c1` belongs 0.76.

For `O=C(O)COc1cccc(SC(F)(F)F)c1`, the logP came out at 2.86. In the case of `O=C(O)COc1cccc(S(=O)(=O)C(F)(F)F)c1`, the logP turned out to be 2.19.

Compound `CC(=O)Nc1cccc(OCC(=O)O)c1` had a logP of 0.48. The compound `O=C(O)Cc1cccc(Br)c1` showed a logP of 2.37.

`O=C(O)Cc1cccc(O)c1`: the logP turned out to be 0.85.

Compound `O=C(O)COc1cccc(F)c1` had a logP of 1.48. Same read-out and setting: to `CC(C)c1ccc(OCC(=O)O)cc1` belongs 2.69. `N#Cc1cccc(O)c1` returned a log partition coefficient (logP) of 1.7. With `CS(=O)(=O)c1cccc(OCC(=O)O)c1`, the lipophilicity (logP) was 0.01. Same read-out and setting: in the case of `COc1ccc(OCC(=O)O)cc1` it was 1.23; in that of `O=C(O)COc1cccc([N+](=O)[O-])c1`, 1.37.

`O=C(O)COc1ccccc1Cl` had a logP in series [1] of 2.02. With `CCCc1cccc(OCC(=O)O)c1`, the logP was 2.71. Take `O=C(O)Cc1cccc(C(F)(F)F)c1`: the logP in series [1] worked out at 2.62.

`O=C(O)COc1cccc(OC(F)(F)F)c1` displayed a logP of 2.48. On the same count and under the same terms, to `O=C(O)COc1ccc(N=Nc2ccccc2)cc1` belongs 2.99; to `O=[N+]([O-])c1cccc(Br)c1`, 2.64. Still for that read-out and setting: in the case of `O=C(O)Cc1ccc(Br)cc1` it was 2.31.

For the compound `O=C(O)COc1ccccc1Br`, in series [1], the logP was found to be 2.1. The compound `CSc1cccc(OCC(=O)O)c1` yielded a logP of 1.9. Consider `O=C(O)COc1cccc(C(=O)O)c1`, for which the lipophilicity (logP) is 1.11. Turning to `O=C(O)COc1cccc(NC(=O)c2ccccc2)c1`, the logP worked out at 1.99. Turning to `N#Cc1cccc(C(=O)O)c1`, the logP is 1.48. As to `O=C(O)Cc1cccc(C(=O)O)c1`, the logP in series [1] came out at 1.14. `O=C(O)COc1cccc(I)c1` returned a logP of 2.44. Same read-out and setting: to `O=C(O)c1ccc(Br)cc1` belongs 2.86. Take `O=[N+]([O-])c1cccc(CO)c1`: the logP worked out at 1.21. `N#Cc1cccc(CC(=O)O)c1` displayed a log partition coefficient (logP) in series [1] of 1.18.
